# Laboratory results from patent US9415055B2, “Cyclic amines” (H. Lundbeck A/S, priority 2012, dated 2016).
# Molecular target: P2X7 receptor (Homo sapiens (Human), UniProt Q99572)
# Experiment: P2X7 FLIPR assay: antagonism of BzATP response in 293 HEK cells stably expressing P2X7 receptor
# Format: cell-based
# Settings: FLIPR fluorescence (Fluo-4), agonist BzATP, 293 HEK cells stably transfected with P2X7 receptor
# How it was run: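 Antagonist IC50 derived from FLIPR Tetra Fluo-4 calcium signal evoked by BzATP. Compound pre-incubation was 30 min at room temperature on P2X7-expressing HEK293 cells, seeded 24 h before in low-serum medium and dye-loaded 30 min at 37 °C then 30 min at RT.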
# Chain of P2X7 receptor (Q99572 whole entry): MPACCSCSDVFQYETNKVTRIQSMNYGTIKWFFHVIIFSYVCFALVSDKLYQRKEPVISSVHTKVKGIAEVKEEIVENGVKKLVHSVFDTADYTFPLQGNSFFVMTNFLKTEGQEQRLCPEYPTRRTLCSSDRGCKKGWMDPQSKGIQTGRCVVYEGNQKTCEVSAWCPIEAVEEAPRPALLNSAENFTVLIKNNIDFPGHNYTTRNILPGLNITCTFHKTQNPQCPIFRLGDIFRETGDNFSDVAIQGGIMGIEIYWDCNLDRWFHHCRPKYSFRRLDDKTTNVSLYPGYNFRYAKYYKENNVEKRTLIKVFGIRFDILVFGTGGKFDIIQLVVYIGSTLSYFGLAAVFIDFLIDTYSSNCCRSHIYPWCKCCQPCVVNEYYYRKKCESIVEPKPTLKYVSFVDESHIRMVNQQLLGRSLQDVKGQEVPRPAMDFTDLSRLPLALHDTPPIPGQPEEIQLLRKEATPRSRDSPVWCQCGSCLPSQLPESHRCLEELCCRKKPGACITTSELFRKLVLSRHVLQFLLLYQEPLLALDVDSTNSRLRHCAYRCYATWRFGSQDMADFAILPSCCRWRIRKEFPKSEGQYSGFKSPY
row,Compound,IC50 [nM]
1,"Cn1cc(C(CNC(=O)c2c(Cl)cccc2Cl)N2CCC(F)(F)CC2)cn1 (single isomer, unassigned; (-)) [(−)2,6-dichloro-N-[2-(4,4-difluoro-1-piperidyl)-2-(1-methylp] [(−)2,6-dichloro-N-(2-(4,4-difluoropiperidin-1-yl)-2-(1-methyl-1H-pyrazol-4-yl)ethyl)benzamide]",44
2,"Cc1ncc(C(CNC(=O)c2c(Cl)cccc2Cl)N2CCC(F)CC2)cn1 (single isomer, unassigned; (-)) [(−)2,6-dichloro-N-[2-(4-fluoro-1-piperidyl)-2-(2-methylpyrim] [(−)2,6-dichloro-N-(2-(4-fluoropiperidin-1-yl)-2-(2-methylpyrimidin-5-yl)ethyl)benzamide]",53
3,"O=C(NCC(c1ccc(C(F)(F)F)nc1)N1CCOCC1)c1c(F)cccc1F (single isomer, unassigned; (-)) [(−)2,6-difluoro-N-[2-morpholino-2-[6-(trifluoromethyl)-3-pyr] [(−)2,6-difluoro-N-(2-morpholino-2-(6-(trifluoromethyl)pyridin-3-yl)ethyl)benzamide]",480
4,"O=C(NCC(c1cnc(C(F)(F)F)nc1)N1CCOCC1)c1ccccc1F (single isomer, unassigned; (-)) [(−)2-Fluoro-N-[2-morpholino-2-[2-(trifluoromethyl)pyrimidin-5-yl]ethyl]benzamide]",44
5,"Cc1ncc(C(CNC(=O)c2cccc(OC(F)F)c2Cl)N2CCC(F)(F)CC2)cn1 (single isomer, unassigned; (-)) [(−)2-chloro-3-(difluoromethoxy)-N-[2-(4,4-difluoro-1-piperid] [(−)2-chloro-3-(difluoromethoxy)-N-(2-(4,4-difluoropiperidin-1-yl)-2-(2-methylpyrimidin-5-yl)ethyl)benzamide]",37
6,"CS(=O)(=O)c1ccc(Cl)c(C(=O)NCC(c2ccc(C(F)(F)F)nc2)N2CCOCC2)c1 (single isomer, unassigned; (-)) [(−)2-chloro-5-methylsulfonyl-N-[2-morpholino-2-[6-(trifluoro] [(−)2-chloro-5-(methylsulfonyl)-N-(2-morpholino-2-(6-(trifluoromethyl)pyridin-3-yl)ethyl)benzamide]",51
7,"CC(C)S(=O)(=O)c1ccc(Cl)c(C(=O)NCC(c2ccc(Cl)cc2)N2CCOCC2)c1 (single isomer, unassigned; (-)) [(−)2-chloro-N-(2-(4-chlorophenyl)-2-morpholinoethyl)-5-(isopropylsulfonyl)benzamide]",47
8,"Cc1ncc(C(CNC(=O)c2ccccc2Cl)N2CCCCC2)cn1 (single isomer, unassigned; (-)) [(−)2-chloro-N-[2-(2-methylpyrimidin-5-yl)-2-(1-piperidyl)eth] [(−)2-chloro-N-(2-(2-methylpyrimidin-5-yl)-2-(piperidin-1-yl)ethyl)benzamide]",120
9,"Cc1ncc(C(CNC(=O)c2ccccc2Cl)N2CCOCC2)cn1 (single isomer, unassigned; (-)) [(−)2-chloro-N-[2-(2-methylpyrimidin-5-yl)-2-morpholino-ethyl] [(−)2-chloro-N-(2-(2-methylpyrimidin-5-yl)-2-morpholinoethyl)benzamide]",110
10,"Cc1ncc(C(CNC(=O)c2cccc(F)c2Cl)N2CCCC(F)(F)C2)cn1 (single isomer, unassigned; (-)) [(−)2-chloro-N-[2-(3,3-difluoro-1-piperidyl)-2-(2-methylpyrim] [(−)2-chloro-3-fluoro-N-(2-(3,3-difluoropiperidin-1-yl)-2-(2-methylpyrimidin-5-yl)ethyl)benzamide]",41
11,"Cc1ncc(C(CNC(=O)c2c(F)cccc2Cl)N2CCCC(F)(F)C2)cn1 (single isomer, unassigned; (-)) [(−)2-chloro-N-[2-(3,3-difluoro-1-piperidyl)-2-(2-methylpyrim] [(−)2-chloro-6-fluoro-N-(2-(3,3-difluoropiperidin-1-yl)-2-(2-methylpyrimidin-5-yl)ethyl)benzamide]",280
12,"Cn1cc(C(CNC(=O)c2ccccc2Cl)N2CCC(F)(F)CC2)cn1 (single isomer, unassigned; (-)) [(−)2-chloro-N-[2-(4,4-difluoro-1-piperidyl)-2-(1-methylpyraz] [(−)2-chloro-N-(2-(4,4-difluoropiperidin-1-yl)-2-(1-methyl-1H-pyrazol-4-yl)ethyl)benzamide]",230

# Second part, the compound after the results:
row,IC50 [nM],Compound
1,27,"CCc1ncc(C(CNC(=O)c2c(Cl)cccc2Cl)N2CCC(F)(F)CC2)cn1 (single isomer, unassigned; (-)) [(−)2,6-dichloro-N-[2-(4,4-difluoro-1-piperidyl)-2-(2-ethylpy] [(−)2,6-dichloro-N-(2-(4,4-difluoropiperidin-1-yl)-2-(2-ethylpyrimidin-5-yl)ethyl)benzamide]"
2,37,"Cc1ncc(C(CNC(=O)c2c(Cl)ccc(F)c2Cl)N2CCC(F)(F)CC2)cn1 (single isomer, unassigned; (-)) [(−)2,6-dichloro-N-[2-(4,4-difluoro-1-piperidyl)-2-(2-methylp] [(−)2,6-dichloro-5-fluoro-N-(2-(4,4-difluoropiperidin-1-yl)-2-(2-methylpyrimidin-5-yl)ethyl)benzamide]"
3,22,"Cc1ncc(C(CNC(=O)c2c(Cl)cccc2Cl)N2CCC(F)(F)CC2)cn1 (single isomer, unassigned; (-)) [(−)2,6-dichloro-N-[2-(4,4-difluoro-1-piperidyl)-2-(2-methylp] [(−)2,6-dichloro-N-(2-(4,4-difluoropiperidin-1-yl)-2-(2-methylpyrimidin-5-yl)ethyl)benzamide]"
4,15,"O=C(NCC(c1cnc(C(F)(F)F)nc1)N1CCC(F)(F)CC1)c1c(Cl)cc(F)cc1Cl (single isomer, unassigned; (-)) [(−)2,6-dichloro-N-[2-(4,4-difluoro-1-piperidyl)-2-[2-(triflu] [(−)2,6-dichloro-4-fluoro-N-(2-(4,4-difluoropiperidin-1-yl)-2-(2-(trifluoromethyl)pyrimidin-5-yl)ethyl)benzamide]"
5,4.9,"O=C(NCC(c1cnc(C(F)(F)F)nc1)N1CCC(F)(F)CC1)c1c(Cl)ccc(F)c1Cl (single isomer, unassigned; (-)) [(−)2,6-dichloro-N-[2-(4,4-difluoro-1-piperidyl)-2-[2-(triflu] [(−)2,6-dichloro-5-fluoro-N-(2-(4,4-difluoropiperidin-1-yl)-2-(2-(trifluoromethyl)pyrimidin-5-yl)ethyl)benzamide]"
6,6.9,"O=C(NCC(c1cnc(C(F)(F)F)nc1)N1CCC(F)(F)CC1)c1c(Cl)cccc1Cl (single isomer, unassigned; (-)) [(−)2,6-dichloro-N-[2-(4,4-difluoro-1-piperidyl)-2-[2-(triflu] [(−)2,6-dichloro-N-(2-(4,4-difluoropiperidin-1-yl)-2-(2-(trifluoromethyl)pyrimidin-5-yl)ethyl)benzamide]"
7,15,"O=C(NCC(c1cnc(C(F)(F)F)nc1)N1CCC(F)CC1)c1c(Cl)cccc1Cl (single isomer, unassigned; (-)) [(−)2,6-dichloro-N-[2-(4-fluoro-1-piperidyl)-2-[2-(trifluorom] [(−)2,6-dichloro-N-(2-(4-fluoropiperidin-1-yl)-2-(2-(trifluoromethyl)pyrimidin-5-yl)ethyl)benzamide]"
8,5.5,"O=C(NCC(c1ccc(C(F)F)nc1)N1CCC(F)(F)CC1)c1c(Cl)cccc1Cl (single isomer, unassigned; (-)) [(−)2,6-dichloro-N-[2-[6-(difluoromethyl)-3-pyridyl]-2-(4,4-d] [(−)2,6-dichloro-N-(2-(2-(difluoromethyl)pyridin-5-yl)-2-(4,4-difluoropiperidin-1-yl)ethyl)benzamide]"
9,8.2,"COc1cccc(C(=O)NCC(c2cnc(C(F)(F)F)nc2)N2CCOCC2)c1Cl (single isomer, unassigned; (-)) [(−)2-chloro-3-methoxy-N-[2-morpholino-2-[2-(trifluoromethyl)] [(−)2-chloro-3-methoxy-N-(2-morpholino-2-(2-(trifluoromethyl)pyrimidin-5-yl)ethyl)benzamide]"
10,6.1,"O=C(NCC(c1ccc(C(F)(F)F)nc1)N1CCOCC1)c1c(F)cccc1Cl (single isomer, unassigned; (-)) [(−)2-chloro-6-fluoro-N-(2-morpholino-2-(6-(trifluoromethyl)p] [(−)2-chloro-6-fluoro-N-(2-morpholino-2-(6-(trifluoromethyl)pyridin-3-yl)ethyl)benzamide]"
11,2.6,"COc1cccc(C(=O)NCC(c2ccc(F)cc2)N2CCC(F)(F)CC2)c1Cl (single isomer, unassigned; (-)) [(−)2-chloro-N-(2-(4,4-difluoropiperidin-1-yl)-2-(4-fluorophenyl)ethyl)-3-methoxybenzamide]"
12,11,"O=C(NCC(c1cnc(C2CC2)nc1)N1CCC(F)(F)CC1)c1c(F)cccc1Cl (single isomer, unassigned; (-)) [(−)2-chloro-N-[2-(2-cyclopropylpyrimidin-5-yl)-2-(4,4-difluo] [(−)2-chloro-6-fluoro-N-(2-(2-cyclopropylpyrimidin-5-yl)-2-(4,4-difluoropiperidin-1-yl)ethyl)benzamide]"
13,7.6,"O=C(NCC(c1cnc(C2CC2)nc1)N1CCC(F)(F)CC1)c1ccccc1Cl (single isomer, unassigned; (-)) [(−)2-chloro-N-[2-(2-cyclopropylpyrimidin-5-yl)-2-(4,4-difluo] [(−)2-chloro-N-(2-(2-cyclopropylpyrimidin-5-yl)-2-(4,4-difluoropiperidin-1-yl)ethyl)benzamide]"
14,28,"Cc1ncc(C(CNC(=O)c2ccccc2Cl)N2CCCC(F)(F)C2)cn1 (single isomer, unassigned; (-)) [(−)2-chloro-N-[2-(3,3-difluoro-1-piperidyl)-2-(2-methylpyrim] [(−)2-chloro-N-(2-(3,3-difluoropiperidin-1-yl)-2-(2-methylpyrimidin-5-yl)ethyl)benzamide]"
